These are literature values, as cited in patent publication US20180110785A1, “METHODS AND COMPOSITIONS FOR AMELIORATING SYMPTOMS ASSOCIATED WITH CHROMOSOMAL ABNORMALITIES” (priority 2014, published 2018).

Entries after “also recorded” stand apart in the source; their conditions may differ. Where two headings read alike, the source gives them in different places.

Data set [1] concerns Ts65Dn mice. The settings on record: cited from earlier work.
The subject of data set [2] is Ts65Dn mice. The note with it: SAG-treated mice, first 4 months of life; cited from earlier work.
The subject of data set [3] is cerebellar Purkinje cells of Ts65Dn and euploid mice. The note with it: cited from earlier work.
The conditions of data set [4]: in vivo; cited from earlier work.
The test system of data set [5] is Ts65Dn mice. The note with it: TsSAG vs EuVeh and TsVeh; cited from earlier work.
Data set [6] has as its system Ts65Dn mice. The note with it: SAG and BrdU co-injected at P0; cited from earlier work.
The subject of data set [7] is Schaffer collateral-CA1 synapses of Ts65Dn mice. The note with it: cited from earlier work; for TBS-induced LTP, fEPSP: hippocampal slices from TsSAG mice.
For data set [8], the system named is Ts65Dn mice. The note with it: cited from earlier work. This is another data set of the same source.
In data set [9] the test system is Schaffer collateral-CA1 synapses of Ts65Dn mice. The note with it: cited from earlier work.
The next data set has as its system primary GCP cultures. The note with it: compared with Shh-Np; cited from earlier work.
Data set [10] concerns Ts65Dn mice. More on the design: cerebellar cross-sectional area at the midline and GC density: dose or concentration left out as unconfirmed. The note with it: cited from earlier work.
Setting [11] is: hippocampal slices from Ts65Dn mice.

With `CNC1CCC(N(Cc2cccc(-c3ccncc3)c2)C(=O)c2sc3ccccc3c2Cl)CC1` (stereo not drawn) [SAG], the “Y maze performance (alternation, arm entrances; words)” value in the data set on Ts65Dn mice [1] (Ts65Dn mice) is given as “did not have an effect on either outcome in Ts65Dn mice; also recorded: does not improve Y maze performance in Ts65Dn mice”. The Y maze alternation in the data set on Ts65Dn mice [1] (TsSAG mice (EuVeh 78%)) is recorded as 60%. The “tumor formation or complications” value in the data set with Ts65Dn mice [2] is “no evidence of tumor formation or obvious complications in the first 4 months of life”. The “depression of EPSC after induction of LTD” value in data set [3] (Ts65Dn mice, limited to lobule III, P=0.019) is listed as “more depression of EPSC after the induction of LTD”. Moreover, the PPR values result in data set [3] (euploid mice, lobule IX, P=0.005) is “significantly decreased the PPR values measured in lobule IX”. Moreover, the “EPSC paired-pulse ratios (PPR) of Purkinje cells” value in [3] (trisomic mice, lobule III and IX) was “did not restore the PPR values in trisomic mice”. Besides, in data set [4], the “crossing of biological barriers” value is “crosses the gut, the placenta, and the blood-brain barrier; also recorded: penetrates the blood-brain barrier”. Besides, in the data set on Ts65Dn mice [5], the “open-field performance (time in periphery or center)” value is recorded as “no significant differences were observed with TsSAG; also recorded: does not affect open-field performance”. The “dentate gyrus deficit / proliferation at P6” value in the data set with Ts65Dn mice [6] is listed as “Dentate gyrus is not affected by SAG treatment”. Further, the “TBS-LTP” value in [7] (setting [11]) is “rescues attenuated TBS-LTP in hippocampal slices from Ts65Dn mice”. For the same molecule, the “TBS-induced LTP, fEPSP” value in data set [7] (t=30 min) is 132.9±2.2 % of baseline; in [7] (t=80 min), 127.4±2.0 % of baseline. In the data set with Ts65Dn mice [8] (TsSAG mice), the MWM search strategies result was “used the same successful strategies as EuVeh; also recorded: normalizes search strategies of Ts65Dn mice in the MWM”. Also, in the data set on Ts65Dn mice [8] (adult Ts65Dn mice, single SAG treatment at P0), the “performance in MWM / tasks dependent on hippocampus” value is given as “normalized performance of adult Ts65Dn mice in the MWM; also recorded: corrects performance of trisomic mice in tasks dependent on hippocampus”. Further, in the data set on Ts65Dn mice [8] (euploid mice), the MWM performance result is “had no effect on the performance of euploid mice”. Besides, in data set [9] (TsSAG, n=11), the NMDA/AMPA ratio is given as 0.19±0.034. Also, the “NMDA-EPSCs” value in [9] (setting [11]) was “partially rescues attenuated NMDA-EPSCs in hippocampal slices from Ts65Dn mice”. Moreover, in the data set with primary GCP cultures, the mitogenic activity result is “had mitogenic activity in primary GCP cultures”. The “GCP number at P6” value with Ts65Dn mice [10] (Ts65Dn mice, SAG subcutaneously on the day of birth) is on record as “normalized GCP number”; with Ts65Dn mice [10] (euploid mice (EuSAG), single dose of SAG at P0), “did not significantly increase GCP number at P6”. Further, in the data set on Ts65Dn mice [10] (adult (about 16 weeks) Ts65Dn mice, single injection of SAG on the day of birth), the “cerebellar cross-sectional area at the midline and GC density” value is “had the same cross-sectional area and GC density as EuVeh; also recorded: normalizes cerebellar morphology in adult Ts65Dn mice”.
